Reference: PubChem BioAssay (NCI)
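A five-concentration, 48-hour dose response in 96-well plates underlies each endpoint, interpolated linearly between surrounding concentrations. GI50 = concentration required for 50% inhibition of growth. TGI marks complete inhibition of growth.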

Columns and labels:
Test in all cases: NCI anticancer screen, dose series, 48 h
786-0 renal = system: 786-0 renal
A498 renal = system: A498 renal
A549 NSCLC = system: A549 NSCLC
ACHN renal = system: ACHN renal
BT-549 breast = system: BT-549 breast
CAKI-1 renal = system: CAKI-1 renal
CCRF-CEM leukemia = system: CCRF-CEM leukemia
DU-145 prostate = system: DU-145 prostate
HCC-2998 colon = system: HCC-2998 colon
HL-60(TB) leukemia = system: HL-60(TB) leukemia
HOP-62 NSCLC = system: HOP-62 NSCLC
HT29 colon = system: HT29 colon
IGROV1 ovarian = system: IGROV1 ovarian
K-562 leukemia = system: K-562 leukemia
KM12 colon = system: KM12 colon
M14 melanoma = system: M14 melanoma
MALME-3M melanoma = system: MALME-3M melanoma
NCI-H226 lung = system: NCI-H226 lung
NCI-H23 lung = system: NCI-H23 lung
NCI-H460 lung = system: NCI-H460 lung
NCI-H522 lung = system: NCI-H522 lung
NCI/ADR-RES ovarian = system: NCI/ADR-RES ovarian
OVCAR-3 ovarian = system: OVCAR-3 ovarian
RXF 393 renal = system: RXF 393 renal
SF-268 CNS = system: SF-268 CNS
SF-295 CNS = system: SF-295 CNS
SF-539 CNS = system: SF-539 CNS
SK-MEL-2 melanoma = system: SK-MEL-2 melanoma
SK-MEL-28 melanoma = system: SK-MEL-28 melanoma
SK-MEL-5 melanoma = system: SK-MEL-5 melanoma
SK-OV-3 ovarian = system: SK-OV-3 ovarian
SN12C renal = system: SN12C renal
SNB-19 CNS = system: SNB-19 CNS
SNB-75 CNS = system: SNB-75 CNS
SW-620 colon = system: SW-620 colon
TK-10 renal = system: TK-10 renal
U251 CNS = system: U251 CNS
UACC-257 melanoma = system: UACC-257 melanoma
UACC-62 melanoma = system: UACC-62 melanoma
UO-31 renal = system: UO-31 renal
COLO 205 colon = system: COLO 205 colon
EKVX NSCLC = system: EKVX NSCLC
HOP-92 NSCLC = system: HOP-92 NSCLC
HS 578T breast = system: HS 578T breast
MDA-MB-231 breast = system: MDA-MB-231 breast
OVCAR-4 ovarian = system: OVCAR-4 ovarian
OVCAR-5 ovarian = system: OVCAR-5 ovarian
T-47D breast = system: T-47D breast
HCT-116 colon = system: HCT-116 colon
HCT-15 colon = system: HCT-15 colon
LOX IMVI melanoma = system: LOX IMVI melanoma
MCF7 breast = system: MCF7 breast
MDA-MB-435 = system: MDA-MB-435
MOLT-4 leukemia = system: MOLT-4 leukemia
OVCAR-8 ovarian = system: OVCAR-8 ovarian
PC-3 prostate = system: PC-3 prostate
RPMI-8226 leukemia = system: RPMI-8226 leukemia
SR leukemia = system: SR leukemia

In the case of C#CCOc1cccc(-c2ncc3cc(NC(=O)CCl)ccc3n2)c1, the GI50 (786-0 renal) is reported as 2.01 µM, the TGI (786-0 renal) is reported as 3.59 µM and the GI50 (A498 renal) is reported as 13.2 µM. For the same compound, the TGI (A498 renal) was 31 µM, the GI50 (A549 NSCLC) was 2.11 µM and the TGI (A549 NSCLC) was 4.43 µM. It also gave a GI50 (ACHN renal) of 1.72 µM, a TGI (ACHN renal) of 3.19 µM and a GI50 (BT-549 breast) of 1.47 µM. It also gave a TGI (BT-549 breast) of 3.18 µM, a GI50 (CAKI-1 renal) of 1.88 µM and a TGI (CAKI-1 renal) of 3.31 µM. The GI50 (CCRF-CEM leukemia) was 0.252 µM, the TGI (CCRF-CEM leukemia) was 0.994 µM and the GI50 (DU-145 prostate) was 1.79 µM. It also gave a TGI (DU-145 prostate) of 3.19 µM, a GI50 (HCC-2998 colon) of 1.91 µM and a TGI (HCC-2998 colon) of 3.4 µM. It also gave a GI50 (HL-60(TB) leukemia) of 2.28 µM, a TGI (HL-60(TB) leukemia) of 8.02 µM and a GI50 (HOP-62 NSCLC) of 2.02 µM. It also gave a TGI (HOP-62 NSCLC) of 3.81 µM, a GI50 (HT29 colon) of 2.02 µM and a TGI (HT29 colon) of 3.99 µM. The GI50 (IGROV1 ovarian) was 1.8 µM, the TGI (IGROV1 ovarian) was 4.01 µM and the GI50 (K-562 leukemia) was 0.561 µM. For the same compound, the TGI (K-562 leukemia) was over 100 µM, the GI50 (KM12 colon) was 1.61 µM and the TGI (KM12 colon) was 3.11 µM. The GI50 (M14 melanoma) was 1.81 µM, the TGI (M14 melanoma) was 4.54 µM and the GI50 (MALME-3M melanoma) was 1.65 µM. For the same compound, the TGI (MALME-3M melanoma) was 3.29 µM, the GI50 (NCI-H226 lung) was 2.6 µM and the TGI (NCI-H226 lung) was 8.17 µM. It also gave a GI50 (NCI-H23 lung) of 1.87 µM, a TGI (NCI-H23 lung) of 4.71 µM and a GI50 (NCI-H460 lung) of 2.16 µM. The TGI (NCI-H460 lung) was 4.83 µM, the GI50 (NCI-H522 lung) was 1.16 µM and the TGI (NCI-H522 lung) was 2.51 µM. The GI50 (NCI/ADR-RES ovarian) was 3.07 µM, the TGI (NCI/ADR-RES ovarian) was over 100 µM and the GI50 (OVCAR-3 ovarian) was 1.93 µM. It also gave a TGI (OVCAR-3 ovarian) of 3.79 µM, a GI50 (RXF 393 renal) of 1.64 µM and a TGI (RXF 393 renal) of 3.09 µM. For the same compound, the GI50 (SF-268 CNS) was 2.03 µM, the TGI (SF-268 CNS) was 5.25 µM and the GI50 (SF-295 CNS) was 3.65 µM. For the same compound, the TGI (SF-295 CNS) was 17 µM, the GI50 (SF-539 CNS) was 1.51 µM and the TGI (SF-539 CNS) was 2.92 µM. It also gave a GI50 (SK-MEL-2 melanoma) of 1.58 µM, a TGI (SK-MEL-2 melanoma) of 3.63 µM and a GI50 (SK-MEL-28 melanoma) of 1.98 µM. For the same compound, the TGI (SK-MEL-28 melanoma) was 3.66 µM, the GI50 (SK-MEL-5 melanoma) was 1.33 µM and the TGI (SK-MEL-5 melanoma) was 2.62 µM. For the same compound, the GI50 (SK-OV-3 ovarian) was 3.58 µM, the TGI (SK-OV-3 ovarian) was over 100 µM and the GI50 (SN12C renal) was 1.44 µM. For the same compound, the TGI (SN12C renal) was 2.93 µM, the GI50 (SNB-19 CNS) was 1.76 µM and the TGI (SNB-19 CNS) was 3.45 µM. The GI50 (SNB-75 CNS) was 2.22 µM, the TGI (SNB-75 CNS) was 15.4 µM and the GI50 (SW-620 colon) was 1.56 µM. It also gave a TGI (SW-620 colon) of 3.25 µM, a GI50 (TK-10 renal) of 2.6 µM and a TGI (TK-10 renal) of 4.85 µM. It also gave a GI50 (U251 CNS) of 1.78 µM, a TGI (U251 CNS) of 3.23 µM and a GI50 (UACC-257 melanoma) of 2.02 µM. The TGI (UACC-257 melanoma) was 3.96 µM, the GI50 (UACC-62 melanoma) was 1.52 µM and the TGI (UACC-62 melanoma) was 3.36 µM. The GI50 (UO-31 renal) was 1.52 µM and the TGI (UO-31 renal) was 2.91 µM.

Work on COc1cc(/C=C/C(=O)c2ccc(O)c(OC)c2)ccc1O yielded a TGI (COLO 205 colon) of 41.2 µM, a TGI (EKVX NSCLC) of 41.6 µM and a TGI (HOP-92 NSCLC) of 50.7 µM. The TGI (HS 578T breast) was 60.3 µM, the TGI (MALME-3M melanoma) was 51.4 µM and the TGI (MDA-MB-231 breast) was 79.4 µM. The TGI (NCI-H226 lung) was 46.3 µM, the TGI (NCI-H522 lung) was 32.3 µM and the TGI (OVCAR-3 ovarian) was 72 µM. The TGI (OVCAR-4 ovarian) was 71.4 µM, the TGI (OVCAR-5 ovarian) was 50.8 µM and the TGI (SF-295 CNS) was 49 µM. It also gave a TGI (SK-MEL-2 melanoma) of 42.6 µM, a TGI (SK-MEL-28 melanoma) of 36.5 µM and a TGI (SK-OV-3 ovarian) of 93.4 µM. For the same compound, the TGI (SNB-75 CNS) was 77.5 µM, the TGI (T-47D breast) was 58.7 µM and the TGI (TK-10 renal) was 87.9 µM. The TGI (UACC-257 melanoma) was 45.9 µM.

CCOc1ncn(-c2ccc(NC(=S)Nc3ncccn3)cc2)n1 showed a TGI (A549 NSCLC) of over 100 µM, a TGI (BT-549 breast) of 71.1 µM and a TGI (CCRF-CEM leukemia) of 59.1 µM. For the same compound, the TGI (COLO 205 colon) was 81.7 µM, the TGI (DU-145 prostate) was over 100 µM and the TGI (EKVX NSCLC) was over 100 µM. For the same compound, the TGI (HCC-2998 colon) was 46 µM, the TGI (HCT-116 colon) was over 100 µM and the TGI (HCT-15 colon) was over 100 µM. For the same compound, the TGI (HL-60(TB) leukemia) was 65.2 µM, the TGI (HOP-62 NSCLC) was over 100 µM and the TGI (HOP-92 NSCLC) was 87 µM. It also gave a TGI (HT29 colon) of 25.7 µM, a TGI (IGROV1 ovarian) of over 100 µM and a TGI (K-562 leukemia) of over 100 µM. It also gave a TGI (KM12 colon) of over 100 µM, a TGI (LOX IMVI melanoma) of 37.9 µM and a TGI (M14 melanoma) of 91.3 µM. It also gave a TGI (MCF7 breast) of over 100 µM, a TGI (MDA-MB-231 breast) of 64.6 µM and a TGI (MDA-MB-435) of over 100 µM. The TGI (MOLT-4 leukemia) was 57.3 µM, the TGI (NCI-H23 lung) was over 100 µM and the TGI (NCI-H460 lung) was over 100 µM. For the same compound, the TGI (NCI-H522 lung) was 38.6 µM, the TGI (OVCAR-3 ovarian) was over 100 µM and the TGI (OVCAR-4 ovarian) was over 100 µM. For the same compound, the TGI (OVCAR-5 ovarian) was over 100 µM, the TGI (OVCAR-8 ovarian) was 56 µM and the TGI (PC-3 prostate) was over 100 µM. The TGI (RPMI-8226 leukemia) was over 100 µM, the TGI (SF-268 CNS) was over 100 µM and the TGI (SF-295 CNS) was over 100 µM. It also gave a TGI (SF-539 CNS) of 33.5 µM, a TGI (SK-MEL-28 melanoma) of 59.8 µM and a TGI (SK-MEL-5 melanoma) of 44.9 µM. The TGI (SK-OV-3 ovarian) was over 100 µM, the TGI (SN12C renal) was over 100 µM and the TGI (SNB-19 CNS) was over 100 µM. For the same compound, the TGI (SNB-75 CNS) was over 100 µM, the TGI (SR leukemia) was 59.5 µM and the TGI (SW-620 colon) was over 100 µM. It also gave a TGI (T-47D breast) of 62.2 µM, a TGI (TK-10 renal) of over 100 µM and a TGI (U251 CNS) of over 100 µM. The TGI (UACC-257 melanoma) was over 100 µM, the TGI (UACC-62 melanoma) was 91 µM and the TGI (UO-31 renal) was 36 µM.
